The series deals with Multidrug resistance-associated protein 1 (MRP1) (Homo sapiens, UniProt P33527). The series can be described thus: TP_TRANSPORTER: inhibition of LTC4 uptake (LTC4: 0.00134 uM, ONO-1078: 100 uM) in membrane vesicles from CV60 cells. It counts as functional, cell membranes, Membrane vesicle. Details: scale not given: the % may be the effect or the level left. The note with it: probe LTC4 (0.00134 uM), read-out: Activity.
Multidrug resistance-associated protein 1 (MRP1), sequence (P33527 whole entry): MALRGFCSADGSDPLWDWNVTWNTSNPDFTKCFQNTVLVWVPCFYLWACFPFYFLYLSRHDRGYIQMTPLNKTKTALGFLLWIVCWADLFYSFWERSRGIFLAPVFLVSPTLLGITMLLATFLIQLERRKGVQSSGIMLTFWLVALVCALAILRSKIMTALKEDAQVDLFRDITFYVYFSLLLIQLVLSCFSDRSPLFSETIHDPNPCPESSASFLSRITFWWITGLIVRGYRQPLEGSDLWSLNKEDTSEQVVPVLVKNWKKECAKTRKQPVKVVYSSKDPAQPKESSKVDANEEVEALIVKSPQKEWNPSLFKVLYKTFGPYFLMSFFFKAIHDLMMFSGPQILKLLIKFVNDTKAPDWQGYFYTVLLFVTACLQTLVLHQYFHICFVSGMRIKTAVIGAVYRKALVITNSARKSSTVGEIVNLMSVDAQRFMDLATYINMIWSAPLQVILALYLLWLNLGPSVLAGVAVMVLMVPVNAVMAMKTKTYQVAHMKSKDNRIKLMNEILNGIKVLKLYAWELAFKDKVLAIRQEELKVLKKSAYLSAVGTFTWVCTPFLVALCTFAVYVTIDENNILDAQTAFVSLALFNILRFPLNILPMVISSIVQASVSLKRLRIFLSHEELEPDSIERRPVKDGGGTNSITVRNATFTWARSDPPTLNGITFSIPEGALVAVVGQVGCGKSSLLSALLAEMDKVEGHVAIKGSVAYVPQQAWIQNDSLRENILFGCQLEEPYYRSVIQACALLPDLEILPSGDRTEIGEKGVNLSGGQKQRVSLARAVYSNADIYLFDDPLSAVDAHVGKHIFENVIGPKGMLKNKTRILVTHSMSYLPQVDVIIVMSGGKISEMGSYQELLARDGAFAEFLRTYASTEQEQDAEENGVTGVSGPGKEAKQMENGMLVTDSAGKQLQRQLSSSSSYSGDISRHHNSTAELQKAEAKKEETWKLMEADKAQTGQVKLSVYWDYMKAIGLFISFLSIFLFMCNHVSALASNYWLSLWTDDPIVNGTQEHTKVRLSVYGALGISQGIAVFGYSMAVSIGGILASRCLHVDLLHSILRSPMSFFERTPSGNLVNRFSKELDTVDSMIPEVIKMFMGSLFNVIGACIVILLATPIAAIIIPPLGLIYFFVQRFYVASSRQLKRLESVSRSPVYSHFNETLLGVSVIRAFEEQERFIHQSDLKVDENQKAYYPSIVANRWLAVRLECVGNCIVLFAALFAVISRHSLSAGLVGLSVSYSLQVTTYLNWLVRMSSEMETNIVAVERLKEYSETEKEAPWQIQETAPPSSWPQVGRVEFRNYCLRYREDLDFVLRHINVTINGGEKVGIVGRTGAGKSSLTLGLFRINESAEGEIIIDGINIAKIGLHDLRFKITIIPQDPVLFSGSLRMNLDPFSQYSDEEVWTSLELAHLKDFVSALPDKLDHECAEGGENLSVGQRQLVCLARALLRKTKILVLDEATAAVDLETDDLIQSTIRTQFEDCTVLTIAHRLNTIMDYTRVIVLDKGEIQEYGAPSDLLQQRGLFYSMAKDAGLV

Regarding `O=C(Nc1cccc2c(=O)cc(-c3nnn[nH]3)oc12)c1ccc(OCCCCc2ccccc2)cc1` [PRANLUKAST], the activity at 100 µM is 55%.

Source of the values: ChEMBL document CHEMBL2073857, “Increased sensitivity to vincristine of MDR cells by the leukotriene D4 receptor antagonist, ONO-1078” (Cancer Lett, 1998).
